Results as given in ChEMBL document CHEMBL1147996, “Synthesis and biological evaluation of phosphino dipeptide isostere inhibitor of human beta-secretase (BACE1)” (Bioorg Med Chem, 2007).
*1 amine or outer side, *2 acyl side, *3 side chain or, on linkers, in order; H or OH if unused. Where a SMILES comes first, the peptide text is derived from it. [ ]: non-standard residue; d: D form. X3 = CC(C)C[C@@H](N[*:1])P(=O)(O)CC(C)C(=O)[*:2]; X1 = CC(C)C[C@H](N[*:1])P(=O)(O)CC(C)C(=O)[*:2]; X2 = CC(C)CC(N[*:1])P(=O)(O)CC(C)C(=O)[*:2]

Columns and labels:
Beta-secretase 1 = Beta-secretase 1 (Homo sapiens, UniProt P56817); assay: Inhibition of human BACE1 expressed in HEK293 cells; type: cell-based
Sequence of Beta-secretase 1 (P56817 whole entry): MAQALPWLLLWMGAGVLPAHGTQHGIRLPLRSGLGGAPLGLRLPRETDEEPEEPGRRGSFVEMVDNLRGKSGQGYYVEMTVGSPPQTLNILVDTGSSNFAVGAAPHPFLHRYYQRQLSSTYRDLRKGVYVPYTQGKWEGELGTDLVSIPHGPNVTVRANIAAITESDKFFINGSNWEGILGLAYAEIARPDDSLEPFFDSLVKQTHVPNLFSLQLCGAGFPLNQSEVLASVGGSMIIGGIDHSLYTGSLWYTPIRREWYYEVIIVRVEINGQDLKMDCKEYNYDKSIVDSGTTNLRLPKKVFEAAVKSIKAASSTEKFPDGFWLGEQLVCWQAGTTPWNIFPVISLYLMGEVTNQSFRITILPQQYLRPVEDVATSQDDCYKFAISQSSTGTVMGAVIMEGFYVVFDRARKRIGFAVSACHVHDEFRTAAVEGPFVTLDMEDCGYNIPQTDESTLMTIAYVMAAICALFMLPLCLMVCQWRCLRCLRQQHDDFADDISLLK

Cathepsin D = Cathepsin D (Homo sapiens, UniProt P07339); assay: Inhibition of cathepsin D expressed in HEK293 cells; type: cell-based
Sequence of Cathepsin D (P07339 65-162 limits assumed): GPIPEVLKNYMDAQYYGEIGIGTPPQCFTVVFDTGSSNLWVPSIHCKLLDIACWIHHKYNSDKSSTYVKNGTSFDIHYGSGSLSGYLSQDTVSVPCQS
Sequence of Cathepsin D (P07339 169-412 limits assumed): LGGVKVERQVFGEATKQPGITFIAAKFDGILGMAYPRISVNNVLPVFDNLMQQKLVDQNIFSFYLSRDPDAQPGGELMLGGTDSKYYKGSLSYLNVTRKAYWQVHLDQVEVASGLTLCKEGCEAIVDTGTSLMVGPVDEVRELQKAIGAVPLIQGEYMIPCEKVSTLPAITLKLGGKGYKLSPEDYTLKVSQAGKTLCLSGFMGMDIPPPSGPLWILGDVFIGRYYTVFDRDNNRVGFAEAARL

Beta-secretase 2 = molecular target: T1, Beta-secretase 2 (Homo sapiens, UniProt Q9Y5Z0); assay: Inhibition of BACE2 expressed in HEK293 cells; type: cell-based
T1 sequence (Q9Y5Z0 whole entry): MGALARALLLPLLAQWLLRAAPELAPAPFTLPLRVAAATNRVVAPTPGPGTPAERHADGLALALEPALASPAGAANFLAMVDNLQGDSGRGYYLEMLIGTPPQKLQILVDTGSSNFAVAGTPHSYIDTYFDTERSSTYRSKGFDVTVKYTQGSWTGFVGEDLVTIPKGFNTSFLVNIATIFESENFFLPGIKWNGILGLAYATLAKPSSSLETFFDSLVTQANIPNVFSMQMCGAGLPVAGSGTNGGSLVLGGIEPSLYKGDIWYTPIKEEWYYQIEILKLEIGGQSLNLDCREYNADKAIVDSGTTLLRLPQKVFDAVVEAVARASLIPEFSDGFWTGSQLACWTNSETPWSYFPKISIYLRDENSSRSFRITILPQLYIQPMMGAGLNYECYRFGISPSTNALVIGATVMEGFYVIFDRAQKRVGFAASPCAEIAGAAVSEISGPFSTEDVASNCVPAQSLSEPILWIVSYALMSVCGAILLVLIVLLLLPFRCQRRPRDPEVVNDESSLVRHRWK

[1] = Inhibition of porcine pepsin; design: species or system Sus scrofa

Row | Structure (SMILES) | IC50 (Beta-secretase 1) [µM] | IC50 (Cathepsin D) [µM] | IC50 (Beta-secretase 2) [µM] | IC50 [1] [µM]
1 | CC(C)C[C@H](NC(=O)[C@@H](N)CCC(=O)O)C(=O)N[C@@H](CC(=O)O)C(=O)N[C@@H](CC(C)C)P(=O)(O)CC(C)C(=O)N[C@H](C(=O)N[C@@H](CCC(=O)O)C(=O)N[C@@H](Cc1ccccc1)C(=O)O)C(C)C (stereo partly specified) (H-ELD[X1]VEF-OH) | 0.012 | 0.028 | 0.012 | 0.008
2 | CC(C)CC(NC(=O)[C@H](CC(=O)O)NC(=O)[C@H](CC(C)C)NC(=O)[C@@H](N)CCC(=O)O)P(=O)(O)CC(C)C(=O)N[C@H](C(=O)N[C@@H](CCC(=O)O)C(=O)N[C@@H](Cc1ccccc1)C(=O)O)C(C)C (stereo partly specified) (H-ELD[X2]VEF-OH) | 0.675 | – | – | –
3 | CC(C)C[C@H](NC(=O)[C@@H](N)CCC(=O)O)C(=O)N[C@@H](CC(=O)O)C(=O)N[C@H](CC(C)C)P(=O)(O)CC(C)C(=O)N[C@H](C(=O)N[C@@H](CCC(=O)O)C(=O)N[C@@H](Cc1ccccc1)C(=O)O)C(C)C (stereo partly specified) (H-ELD[X3]VEF-OH) | 2.02 | – | – | –
